# Measured values: patent US11524021B2, “Use of ginsenoside M1 for manufacturing medicament for treating oral cancer” (priority 2018, dated 2022)
# System: normal human gingival epithelioid cell line SG
# Test: Toxicity to normal human gingival epithelioid SG cells, Trypan blue exclusion
# Format: cell-based
# Settings: 20 μg/ml, 24 h
# Procedure: (§1) Human normal human gingival epithelioid cell line SG cells were incubated for 24 h with ginsenoside M1 (5˜20 μg/ml), ginsenoside Rh2 (5˜20 μg/ml) or vehicle (0.1% DMSO). The live cell numbers were counted by Trypan blue exclusion method. The data were expressed as mean±SD; n=3. ** and *** indicate a significant difference at the level of p<0.01 and p<0.001, respectively, compared to vehicle-control cells. (One-way ANOVA with Dunnett's multiple comparisons test).
# as §1, with “Plate 5×10^5” for “Human”, “SG per 6-cm dish in 2 ml of culture medium and were grown overnight at 37° C. in a 5% CO2 incubator. The” for “SG”, “vehicle. Each group contains a final DMSO concentration of 0.1%. Thereafter, the” for “vehicle (0.1% DMSO). The live”, “method. […]” for “method.”
smiles,measurement,value
"CC(C)=CCC[C@](C)(O[C@@H]1OC(CO)[C@@H](O)[C@@H](O)C1O)[C@H]1CC[C@]2(C)C1[C@H](O)CC1[C@@]3(C)CC[C@H](O)C(C)(C)C3CC[C@]12C (stereo partly drawn) [ginsenoside M1, 20-O-β-D-glucopyranosyl-20(S)-protopanaxadiol]",reduction of SG cell number compared to control cells,50%
